According to the NIST ThermoML archive (doi:10.1021/je0502849):

Conditions: Liquid, Pulse-echo method

CC(C)CC(C)(C)C [2,2,4-trimethylpentane]
speed of sound [m/s]
Conditions | 333.15 K | 343.15 K | 353.15 K | 363.15 K | 373.15 K
100 kPa | – | 897.3 | 858.2 | 817.2 | 780.4
10000 kPa | – | 992.6 | 958 | 924.3 | 891
20000 kPa | – | 1071.6 | 1041.7 | 1011.1 | 980.7
30000 kPa | – | 1142.7 | 1114.1 | 1085.5 | 1057.5
40000 kPa | – | 1205.7 | 1178.7 | 1151.4 | 1125.2
50000 kPa | – | 1262.9 | 1236.1 | 1211.3 | 1185.9
60000 kPa | – | 1315.4 | 1290.4 | 1265.7 | 1242.1
70000 kPa | – | 1363.5 | 1339.5 | 1316.6 | 1293.1
80000 kPa | 1434.9 | 1410.8 | 1386.8 | 1364.4 | 1341.5
90000 kPa | 1479 | 1453.6 | 1431 | 1408.2 | 1386
100000 kPa | 1519 | 1495.3 | 1472.5 | 1449.9 | 1428.5
110000 kPa | 1557.7 | 1534 | 1512.1 | 1490.6 | 1469.2
120000 kPa | 1594.1 | 1571.7 | 1549.6 | 1529 | 1508.2
130000 kPa | 1629.5 | 1607.2 | 1585.9 | 1565.5 | 1545.1
140000 kPa | 1663.5 | 1641.7 | 1620.5 | 1600.8 | 1580.3
150000 kPa | 1696.2 | 1675 | 1654.1 | 1634.2 | 1614
